Data published in patent US20150151008A1, “Contrast Media Taste Masking Formulations” (HOVIONE SCIENTIA LIMITED, priority 2013, published 2015).

Experiments:
[1] = Osmotic pressure (osmolality) in an osmometer; format: physicochemical
Method: The osmotic pressure analysis measures the driving force of a solution to displace water molecules through a membrane from the medium in one side to the other. Considering the membrane is the esophageal epithelium, high osmolality means loss of water from the surrounding tissues to the GI tract. […] […] The osmolality of the powders produced through micro-encapsulation using spray congealing and spray drying were measured and compared to those of the pure contrast agents.

[2] = Particle size and morphology by PLM / SEM imaging; format: physicochemical; conditions: raw, non-encapsulated iopamidol particles

| mOsmol at 15 mg l/mL [1] [mOsmol] | mOsmol at 300 mg l/mL [1] [mOsmol] | Diameter of iopamidol particles [2] | Structure (SMILES) |
| --- | --- | --- | --- |
| 30 | 572 | approximately 3 μm | C[C@H](O)C(=O)Nc1c(I)c(C(=O)NC(CO)CO)c(I)c(C(=O)NC(CO)CO)c1I [Iopamidol (raw), 1-N,3-N-bis(1,3-dihydroxypropan-2-yl)-5-[(2S)-2-hydroxypropanamido]-2,4,6-triiodobenzene-1,3-dicarboxamide] |
| 36 | 413 | – | CC(=O)N(CC(O)CO)c1c(I)c(C(=O)NCC(O)CO)c(I)c(C(=O)NCC(O)CO)c1I (centres unmarked) [Iohexol (raw), 1-N,3-N-bis(2,3-dihydroxypropyl)-5-[N-(2,3-dihydroxypropyl)acetamido]-2,4,6-triiodobenzene-1,3-dicarboxamide] |
